Experimental data reported in ChEMBL document CHEMBL4610097, “Daphnane Diterpenoids from Daphne genkwa Inhibit PI3K/Akt/mTOR Signaling and Induce Cell Cycle Arrest and Apoptosis in Human Colon Cancer Cells” (J Nat Prod, 2020).
pIC50: −log10 of the molar value. The source made the active and inactive calls. No cut-off for these calls is given here.

Key:
SW-620 [1] = assay: Cytotoxicity against human SW620 cells after 24 hrs by MTT assay; type: functional, cell-based; conditions: SW-620, 24 h
RKO = assay: Cytotoxicity against human RKO cells after 24 hrs by MTT assay; type: functional, cell-based
SW-620 [2] = assay: Induction of morphological changes in human SW620 cells assessed as nuclear condensation at […] to 1.48 uM after 24 hrs by acridine orange/propidium iodide staining based microscopic analysis; type: functional, cell-based
SW-620 [3] = assay: Induction of morphological changes in human SW620 cells assessed as appearance of apoptotic bodies at 2.96 to 5.92 uM after 24 hrs by acridine orange/propidium iodide staining based microscopic analysis; type: functional, cell-based
SW-620 [4] = assay: Induction of apoptosis in human SW620 cells assessed as appearance of apoptotic bodies at 11.84 uM after 24 hrs by acridine orange/propidium iodide staining based microscopic analysis; type: functional, cell-based
SW-620 [5] = assay: Induction of cell cycle arrest in human SW620 cells assessed as accumulation at G0/G1 phase at 0.74 uM after 24 hrs by propidium iodide staining-based flow cytometric analysis (reference value: 56.11%); type: functional
SW-620 [6] = assay: Induction of cell cycle arrest in human SW620 cells assessed as accumulation at G0/G1 phase at 1.48 uM after 24 hrs by propidium iodide staining-based flow cytometric analysis (reference value: 56.11%); type: functional
SW-620 [7] = assay: Induction of cell cycle arrest in human SW620 cells assessed as accumulation at G2/M phase at 1.48 uM after 24 hrs by propidium iodide staining-based flow cytometric analysis (reference value: 20.06%); type: functional
SW-620 [8] = assay: Induction of cell cycle arrest in human SW620 cells assessed as accumulation at S phase at 1.48 uM after 24 hrs by propidium iodide staining-based flow cytometric analysis (reference value: 23.83%); type: functional
SW-620 [9] = assay: Induction of cell cycle arrest in human SW620 cells assessed as accumulation at G0/G1 phase at 2.96 uM after 24 hrs by propidium iodide staining-based flow cytometric analysis (reference value: 56.11%); type: functional
SW-620 [10] = assay: Induction of cell cycle arrest in human SW620 cells assessed as accumulation at G2/M phase at 2.96 uM after 24 hrs by propidium iodide staining-based flow cytometric analysis (reference value: 20.06%); type: functional
SW-620 [11] = assay: Induction of cell cycle arrest in human SW620 cells assessed as accumulation at G0/G1 phase at 5.92 uM after 24 hrs by propidium iodide staining-based flow cytometric analysis (reference value: 56.11%); type: functional
SW-620 [12] = assay: Induction of cell cycle arrest in human SW620 cells assessed as accumulation at G2/M phase at 5.92 uM after 24 hrs by propidium iodide staining-based flow cytometric analysis (reference value: 20.06%); type: functional
SW-620 [13] = assay: Induction of cell cycle arrest in human SW620 cells assessed as accumulation at G2/M phase at 11.84 uM after 24 hrs by propidium iodide staining-based flow cytometric analysis (reference value: 20.06%); type: functional
SW-620 [14] = assay: Induction of cell cycle arrest in human SW620 cells assessed as accumulation at S phase at 11.84 uM after 24 hrs by propidium iodide staining-based flow cytometric analysis (reference value: 23.83%); type: functional
SW-620 [15] = assay: Induction of apoptosis in human SW620 cells assessed as late apoptotic cells at 0.74 uM after 24 hrs by annexin V/propidium iodide staining-based flow cytometric analysis (reference value: 2.40%); type: functional
SW-620 [16] = assay: Induction of apoptosis in human SW620 cells assessed as necrotic cells at 0.74 uM after 24 hrs by annexin V/propidium iodide staining-based flow cytometric analysis (reference value: 0.30%); type: functional
SW-620 [17] = assay: Induction of apoptosis in human SW620 cells assessed as viable cells at 1.48 uM after 24 hrs by annexin V/propidium iodide staining-based flow cytometric analysis (reference value: 96.9%); type: functional; conditions: SW-620, 24 h, read-out: Activity
SW-620 [18] = assay: Induction of apoptosis in human SW620 cells assessed as late apoptotic cells at 1.48 uM after 24 hrs by annexin V/propidium iodide staining-based flow cytometric analysis (reference value: 2.40%); type: functional
SW-620 [19] = assay: Induction of apoptosis in human SW620 cells assessed as necrotic cells at 1.48 uM after 24 hrs by annexin V/propidium iodide staining-based flow cytometric analysis (reference value: 0.30%); type: functional
SW-620 [20] = assay: Induction of apoptosis in human SW620 cells assessed as viable cells at 2.96 uM after 24 hrs by annexin V/propidium iodide staining-based flow cytometric analysis (reference value: 96.9%); type: functional; conditions: SW-620, 24 h, read-out: Activity
SW-620 [21] = assay: Induction of apoptosis in human SW620 cells assessed as early apoptotic cells at 2.96 uM after 24 hrs by annexin V/propidium iodide staining-based flow cytometric analysis (reference value: 0.36%); type: functional
SW-620 [22] = assay: Induction of apoptosis in human SW620 cells assessed as late apoptotic cells at 2.96 uM after 24 hrs by annexin V/propidium iodide staining-based flow cytometric analysis (reference value: 2.40%); type: functional
SW-620 [23] = assay: Induction of apoptosis in human SW620 cells assessed as viable cells at 5.92 uM after 24 hrs by annexin V/propidium iodide staining-based flow cytometric analysis (reference value: 96.9%); type: functional; conditions: SW-620, 24 h, read-out: Activity
SW-620 [24] = assay: Induction of apoptosis in human SW620 cells assessed as late apoptotic cells at 5.92 uM after 24 hrs by annexin V/propidium iodide staining-based flow cytometric analysis (reference value: 2.40%); type: functional
SW-620 [25] = assay: Induction of apoptosis in human SW620 cells assessed as necrotic cells at 5.92 uM after 24 hrs by annexin V/propidium iodide staining-based flow cytometric analysis (reference value: 0.30%); type: functional
SW-620 [26] = assay: Induction of apoptosis in human SW620 cells assessed as viable cells at 11.84 uM after 24 hrs by annexin V/propidium iodide staining-based flow cytometric analysis (reference value: 96.9%); type: functional; conditions: SW-620, 24 h, read-out: Activity
SW-620 [27] = assay: Induction of apoptosis in human SW620 cells assessed as early apoptotic cells at 11.84 uM after 24 hrs by annexin V/propidium iodide staining-based flow cytometric analysis (reference value: 0.36%); type: functional
SW-620 [28] = assay: Induction of apoptosis in human SW620 cells assessed as necrotic cells at 11.84 uM after 24 hrs by annexin V/propidium iodide staining-based flow cytometric analysis (reference value: 0.30%); type: functional
SW-620 [29] = assay: Induction of apoptosis in human SW620 cells assessed as increase in cleaved caspase-3 at 0.74 to 11.84 uM after 24 hrs by Western blot analysis; type: functional, cell-based
SW-620 [30] = assay: Induction of apoptosis in human SW620 cells assessed as increase in cleaved caspase-9 at 0.74 to 11.84 uM after 24 hrs by Western blot analysis; type: functional, cell-based
SW-620 [31] = assay: Downregulation of PI3K p85 expression in human SW620 cells at 0.74 to 11.84 uM after 24 hrs by Western blot analysis; type: functional, cell-based
SW-620 [32] = assay: Effect on mTOR expression in human SW620 cells at 0.74 to 11.84 uM after 24 hrs by Western blot analysis; type: cell-based; conditions: sw-620, 24 h
[33] = Inhibition of PI3K/Akt/mTOR signalling pathway in human SW620 cells assessed as reduction in Akt phosphorylation at 0.74 to 11.84 uM after 24 hrs by Western blot analysis; type: cell-based; conditions: SW-620

C=C(C)[C@@]12O[C@@]3(/C=C/C=C/CCCCC)O[C@@H]1[C@@H]1[C@H](O)[C@@](O)(CO)[C@@H](O)[C@]4(O)C(=O)C(C)=C[C@H]4[C@@]1(O3)[C@H](C)[C@H]2OC(=O)c1ccccc1
pIC50 (SW-620 [1]): 5.52 | pIC50 (RKO): 5.19 | Activity (SW-620 [2]): Active | Activity (SW-620 [3]): Active | Activity (SW-620 [4]): Active | Activity (SW-620 [5]): 76.93% | Activity (SW-620 [6]): 78.73% | Activity (SW-620 [7]): 7.08% | Activity (SW-620 [8]): 14.19% | Activity (SW-620 [9]): 82.07% | Activity (SW-620 [10]): 5.17% | Activity (SW-620 [11]): 84.75% | Activity (SW-620 [12]): 3.52% | Activity (SW-620 [13]): 2.43% | Activity (SW-620 [14]): 9.49% | Activity (SW-620 [15]): 15.9% | Activity (SW-620 [16]): 0.1% | viability at 1.48 µM (SW-620 [17]): 45.4% | Activity (SW-620 [18]): 48.5% | Activity (SW-620 [19]): 0.43% | viability at 2.96 µM (SW-620 [20]): 44.1% | Activity (SW-620 [21]): 6.18% | Activity (SW-620 [22]): 49.4% | viability at 5.92 µM (SW-620 [23]): 36.6% | Activity (SW-620 [24]): 58.5% | Activity (SW-620 [25]): 0.25% | viability at 11.84 µM (SW-620 [26]): 1.33% | Activity (SW-620 [27]): 10.7% | Activity (SW-620 [28]): 1.64% | Activity (SW-620 [29]): Active | Activity (SW-620 [30]): Active | Activity (SW-620 [31]): Active | Activity (SW-620 [32]): Non-Toxic | inhibition [33]: Active
